From publication PMC8388802, “Study on the Structure-Activity Relationship of an Antimicrobial Peptide, Brevinin-2GUb, from the Skin Secretion of Hylarana guentheri” (Antibiotics, 2021) come the findings set out here.

Assay [1] has as its system E. coli (ATCC CRM 8739) biofilm. Format: cell-based, Escherichia coli. Particulars: ATCC CRM 8739, 24 h. As for the experimental part: (§1) The anti-biofilm activities of the peptides against S. aureus (ATCC 6538), MRSA (NCTC 12493), E. faecalis (NCTC 12493), E. coli (ATCC CRM 8739), K. pneumoniae (ATCC 43816), and P. aeruginosa (ATCC CRM 9027) were evaluated.
(§2) The bacteria were inoculated in a different medium (Gram-positive bacteria were in TSB and Gram-negative bacteria were in LB) overnight, and the subculture was conducted in the same medium. When the bacteria reached a specific density, 100 µL of the dilution was added to each well of the 96-well microplate. Then 1 µL of peptide at a series of concentrations, the same concentration in the antimicrobial assay, were added into the well together with the bacteria. The plates were put into a moist shaking incubator with a speed of 200 rpm, and the temperature was set at 37 ℃. After a 24-h incubation, the liquid in the wells was aspirated, and each was washed twice by 100 µL PBS. One hundred µL of methanol were added into each well to stabilise the biofilm. After air-drying, 100 µL crystal violet was used to dye the biofilm, and they were dissolved in the 100 µL glacial acidic acid after drying. The solutions were transferred to a new microplate, and the absorbance of each well was tested by a microplate reader (EL808, Biolise BioTek Winooski, Minneapolis, MN, USA) at 595 nm wavelength. MBIC was the minimum concentration of the peptide showing no biofilm formation.
(§3) The bacteria were inoculated in a different medium (Gram-positive bacteria were in TSB and Gram-negative bacteria were in LB) overnight, and the subculture was conducted in the same medium. When the bacteria reached a specific density, 100 µL of the dilution was added to each well of the 96-well microplates. The plates were put into a moist shaking incubator with a speed of 200 rpm and the temperature was 37 ℃. After a 24 h incubation, the liquid in the wells was aspirated and they were washed twice by 100 µL PBS of each well. The peptides with the same concentrations were diluted in the corresponding medium and 100 µL were added into each well. After a 24-h incubation, the liquid in the wells was aspirated and they were washed twice by 100 µL PBS. One hundred µL of methanol were added into the wells to stabilise the biofilms. After being air-dried, 100 µL crystal violet was used to dye the biofilm, and they were dissolved in the 100 µL glacial acidic acid after drying. The solutions were transferred to a new microplate, and the absorbance of each well was tested by a microplate reader (EL808, Biolise BioTek Winooski, Minneapolis, USA) at 595 nm wavelength.

A further assay concerns MRSA (B042 V2E1 A). It is filed as cell-based, Methicillin-resistant Staphylococcus aureus. As for the experimental part:
(§4) The method of antimicrobial assay is based on the Methods for Dilution Antimicrobial Susceptibility Tests for Bacteria that Grow Aerobically from the Clinical and Laboratory Standards Institute (CLSI).The antimicrobial activities of peptides were evaluated against Gram-positive bacteria S. aureus (ATCC 6538), MRSA (NCTC 12493), E. faecalis (NCTC 12493), Gram-negative bacteria E. coli (ATCC CRM 8739), K. pneumoniae (ATCC 43816), P. aeruginosa (ATCC CRM 9027), yeast C. albicans (ATCC CRM 10231) and clinical isolates MRSA (B042 V2E1 A), E. coli (ATCC BAA-2340), K. pneumoniae (ATCC BAA-1705), P. aeruginosa (B004 V2S2 B).
(§5) At the first stage of the assay, 20 μL bacteria were cultured in 100 mL Mueller Hinton Broth (MHB) or Yeast Extract–Peptone–Dextrose broth (YPD-B), respectively, and was incubated overnight. Then, microorganisms were subcultured in 20 mL fresh MHB or YPD-B to achieve cultures in the logarithmic phase (1 × 10^8 CFU/mL), which can be verified by optical density (OD) (The OD of Gram-positive bacteria is 0.23, OD of Gram-negative bacteria is 0.4, and OD of yeast is 0.15), and viable cell counts. Then, the medium was used to dilute the cultures to specific cell densities (Gram-negative and Gram-positive bacteria: 5 × 10^5 CFU/mL; yeast: 1 × 10^6 CFU/mL), which were the final concentrations of bacterial suspensions used in the assay. The peptides were dissolved in DMSO to reach a final concentration of 512 µM. A series of two-fold dilutions ranging from 512 µM to 1 µM were dosed in the 96-well plates.
(§6) Antimicrobial assays were conducted in 96-well plates, which were divided into five groups, including a negative control group (PBS), a positive control group (20 μg/mL norfloxacin for bacteria and 10 μg/mL amphotericin B for yeast), vehicle control (1% DMSO), blank control (MHB or YPD-B), and a peptide group. Each microorganism had five repetitions, and each well contained 1 µL corresponding solution and 99 µL culture. After incubation at 37 °C overnight, the absorbance of each well was tested by a microplate reader (EL808, Biolise BioTek Winooski, Minneapolis, USA) under a 550 nm wavelength. The MIC is the lowest concentration at which no bacterial growth can be observed.
(§7) The next day, 10 µL of every clear well was taken out to be cultured on a Mueller Hinton Agar (MHA) plate and incubated at 37 °C for 16–20 h. The MBC is the lowest concentration without any bacterial colonies, which means at this concentration, the peptide reduces the viability of the pathogen by more than 99.9%.

The subject of another assay is MRSA (NCTC 12493). It is filed as cell-based, Methicillin-resistant Staphylococcus aureus. The procedure:
as §4, §5, §6, §7

The subject of assay [2] is P. aeruginosa (ATCC CRM 9027) biofilm. Format: cell-based, Pseudomonas aeruginosa. To be noted: ATCC CRM 9027, 24 h. The procedure: as §1, §2, §3
For assay [3], the system named is S. aureus (ATCC 6538) biofilm. Format: cell-based, Staphylococcus aureus. To be noted: ATCC 6538, 24 h. As for the experimental part: as §1, §2, §3
Assay [4] relates to E. faecalis (NCTC 12493) biofilm. It is filed as cell-based, Enterococcus faecalis. To be noted: NCTC 12493, 24 h. The procedure: as §1, §2, §3
In the next assay the test system is E. coli (ATCC CRM 8739). Format: cell-based, Escherichia coli. The procedure: as §4, §5, §6, §7
Assay [5] concerns P. aeruginosa (ATCC CRM 9027). It is filed as cell-based, Pseudomonas aeruginosa. As for the experimental part: as §4, §5, §6, §7
Assay [6] has as its system P. aeruginosa (B004 V2S2 B). Format: cell-based, Pseudomonas aeruginosa. As for the experimental part:
as §4, §5, §6, §7

Another assay concerns S. aureus (ATCC 6538). It is filed as cell-based, Staphylococcus aureus. As for the experimental part:
as §4, §5, §6, §7

The structures appear in SMILES notation. Values after ≈ are worked out from the molar mass of the structure shown. Where a SMILES comes first, the peptide text is derived from it.

The term MBC denotes the lowest tested concentration that kills the bacteria rather than only halting them. A higher MBC goes with less potent killing. One may read the MIC as the least concentration at which growth counts as inhibited. As to `CC[C@H](C)[C@H](NC(=O)[C@@H](NC(=O)CN)C(C)C)C(=O)N[C@H](C(=O)N[C@@H](CC(=O)O)C(=O)N[C@H](C(=O)N[C@@H](CC(C)C)C(=O)N[C@@H](CCCCN)C(=O)NCC(=O)N[C@@H](C)C(=O)N[C@@H](C)C(=O)N[C@@H](CCCCN)C(=O)N[C@H](C(=O)N[C@H](C(=O)N[C@@H](C)C(=O)N[C@@H](C)C(=O)N[C@@H](CCC(=O)O)C(=O)N[C@@H](CC(C)C)C(=O)N[C@@H](CC(C)C)C(=O)N[C@@H](CCCNC(=N)N)C(=O)N[C@@H](CCCCN)C(=O)N[C@@H](C)C(=O)N[C@@H](Cc1c[nH]cn1)C(N)=O)C(C)C)[C@@H](C)O)[C@@H](C)O)[C@@H](C)CC` [tB2U] (H-GVIIDTLKGAAKTVAAELLRKAH-NH2), the MBEC in [1], in assay [2], in [3] and in assay [4] was greater than 512 µM each time. In addition, the MBIC in assay [1] is greater than 512 µM; in [2], greater than 512 µM; in assay [3], greater than 512 µM; in [4] it was 256 µM. Also, the MBC in the assay on MRSA (B042 V2E1 A) was greater than 512 µM; with MRSA (NCTC 12493) it was greater than 512 µM; with E. coli (ATCC CRM 8739) it was 128 µM (≈ 304 µg/mL); in [5], greater than 512 µM; in assay [6] it was greater than 512 µM; against S. aureus (ATCC 6538), greater than 512 µM. Further, the MIC against MRSA (B042 V2E1 A) was greater than 512 µM; in the assay with MRSA (NCTC 12493), greater than 512 µM; against E. coli (ATCC CRM 8739) it was 128 µM (≈ 304 µg/mL); in assay [5] it was greater than 512 µM; in assay [6] it was greater than 512 µM; in the assay on S. aureus (ATCC 6538), 256 µM (≈ 608 µg/mL).
Take `CC[C@H](C)[C@H](NC(=O)[C@@H](NC(=O)CN)C(C)C)C(=O)N[C@H](C(=O)N[C@@H](CCCCN)C(=O)N[C@H](C(=O)N[C@@H](CC(C)C)C(=O)N[C@@H](CCCCN)C(=O)NCC(=O)N[C@@H](C)C(=O)N[C@@H](C)C(=O)N[C@@H](CCCCN)C(=O)N[C@H](C(=O)N[C@H](C(=O)N[C@@H](C)C(=O)N[C@@H](C)C(=O)N[C@@H](CCCCN)C(=O)N[C@@H](CC(C)C)C(=O)N[C@@H](CC(C)C)C(N)=O)C(C)C)[C@@H](C)O)[C@@H](C)O)[C@@H](C)CC` [tB2U-K] (H-GVIIKTLKGAAKTVAAKLL-NH2): the MBEC in [1], in assay [2], in assay [3] and in assay [4] was greater than 512 µM each time. For the same compound, the MBIC in [1] amounted to 16 µM; in assay [2], 128 µM; in [3] it was 16 µM; in [4] it was 32 µM. Also, the minimum bactericidal concentration (MBC) with MRSA (B042 V2E1 A) was greater than 512 µM; against MRSA (NCTC 12493) it was 128 µM (≈ 242 µg/mL); with E. coli (ATCC CRM 8739), 8 µM (≈ 15.2 µg/mL); in [5], 32 µM (≈ 60.6 µg/mL); in assay [6], greater than 512 µM; in the assay with S. aureus (ATCC 6538) it was 32 µM (≈ 60.6 µg/mL). The MIC against MRSA (B042 V2E1 A) was greater than 512 µM; in the assay with MRSA (NCTC 12493) it was 128 µM (≈ 242 µg/mL); with E. coli (ATCC CRM 8739), 8 µM (≈ 15.2 µg/mL); in assay [5], 32 µM (≈ 60.6 µg/mL); in [6], greater than 512 µM; against S. aureus (ATCC 6538), 32 µM (≈ 60.6 µg/mL).
